ChEMBL document CHEMBL6120983, “Synthesis and Structure-Activity Relationship of Covalent Inhibitors of SARS-CoV-2 Papain-Like Protease with Antiviral Potency” (Bioorg Med Chem Lett, 2025)

Tests used:
[1] = Lipophilicity, logD of compound; format: physicochemical; conditions: octanol/water
[2] = Half life in dog at 2 mg/kg, iv; format: ADME, organism-based, Canis lupus familiaris; conditions: in vivo
[3] = Volume of distribution in dog at 2 mg/kg, iv; format: ADME, organism-based, Canis lupus familiaris; conditions: in vivo
[4] = Clearance in dog at 2 mg/kg, iv; format: ADME, organism-based, Canis lupus familiaris; conditions: in vivo
[5] = Oral bioavailability in dog at 20 mg/kg; format: ADME, organism-based, Canis lupus familiaris; conditions: in vivo
[6] = Tlast in dog at 20 mg/kg, po; format: ADME, organism-based, Canis lupus familiaris; conditions: in vivo
[7] = Cmax in dog at 20 mg/kg, po; format: ADME, organism-based, Canis lupus familiaris; conditions: in vivo
[8] = Half life in dog at 20 mg/kg, po; format: ADME, organism-based, Canis lupus familiaris; conditions: in vivo
[9] = Plasma protein binding in human; format: ADME, cell-free; conditions: read-out: PPB (converted)
[10] = system: SARS-CoV-2; test: Antiviral activity against SARS CoV-2 infected in human HeLa-ACE2 assessed as reduction in viral replication incubated for 24 hrs; format: functional; conditions: Severe acute respiratory syndrome coronavirus 2, HeLa-ACE2
[11] = AUC (0 to last) in dog at 2 mg/kg, iv; format: ADME, organism-based, Canis lupus familiaris; conditions: in vivo
[12] = MRT (0 to last) in dog at 2 mg/kg, iv; format: ADME, organism-based, Canis lupus familiaris; conditions: in vivo
[13] = Tlast in dog at 2 mg/kg, iv; format: ADME, organism-based, Canis lupus familiaris; conditions: in vivo
[14] = AUC (0 to last) in dog at 20 mg/kg, po; format: ADME, organism-based, Canis lupus familiaris; conditions: in vivo
[15] = Cmax in dog at 2 mg/kg, iv; format: ADME, organism-based, Canis lupus familiaris; conditions: in vivo
[16] = Cytotoxicity against human A549-ACE2 cells assessed as reduction in cell viability; format: toxicity, cell-based
[17] = Intrinsic clearance in mouse liver microsomes; format: ADME, Microsome; conditions: read-out: CLH
[18] = Clearance in dog at 20 mg/kg, po; format: ADME, organism-based, Canis lupus familiaris; conditions: in vivo
[19] = MRT (0 to last) in dog at 20 mg/kg, po; format: ADME, organism-based, Canis lupus familiaris; conditions: in vivo
[20] = target: Replicase polyprotein 1ab (Severe acute respiratory syndrome coronavirus 2, UniProt P0DTD1); test: Inhibition of SARS-CoV-2 papain-like protease using Z-Arg-Leu-Arg-Gly-Gly-AMC as substrate incubated for 15 mins

Compound: COC(=O)/C=C/C(=O)NNC(=O)CCc1ccccc1C(=O)N[C@H](C)c1cccc2ccccc12
- logD [1]: 3
- half-life [2]: 6 min
- Vd [3]: 0.742 L/kg
- clearance [4]: 107 mL/min/kg
- bioavailability [5]: 2.9%
- Tlast [6]: 8 h
- Cmax [7]: 84 ng/mL
- half-life [8]: 72.6 min
- fraction unbound [9]: 0.049
- EC90 [10]: 0.49 µM
- AUC(0-t) [11]: 315 ng·h/mL
- MRT last [12]: 6.84 min
- Tlast [13]: 1 h
- AUC(0-t) [14]: 91 ng·h/mL
- Cmax [15]: 2840 ng/mL
- CC50 ([16]; a549-ace2): 29.9 µM
- microsomal CLint [17]: 144 µL/min/mg
- CL/F [18]: 3710 mL/min/kg
- MRT last [19]: 97.2 min

Compound: C[C@@H](NC(=O)c1ccccc1CCC(=O)NNC(=O)CC#N)c1cccc2ccccc12
- IC50 [20]: 9.5 µM
- EC90 [10]: > 9.6 µM
- CC50 ([16]; A549-ACE2 cells): > 99 µM

Compound: C[C@@H](NC(=O)c1ccccc1CCC(=O)NNC(=O)/C=C/C(=O)OCc1nccs1)c1cccc2ccccc12
- IC50 [20]: 0.34 µM
- EC90 [10]: 9.23 µM
- CC50 ([16]; a549-ace2): 16 µM

Compound: COC(=O)/C=C\C(=O)NNC(=O)CCc1ccccc1C(=O)N[C@H](C)c1cccc2ccccc12
- EC90 [10]: 0.71 µM
- CC50 ([16]; a549-ace2): 34.6 µM

Compound: C[C@@H](NC(=O)c1ccccc1CCC(=O)NNC(=O)/C=C/C(=O)OCC1CCCC1)c1cccc2ccccc12
- IC50 [20]: 1.62 µM
- EC90 [10]: 0.31 µM
- CC50 ([16]; a549-ace2): 69.5 µM

Compound: COC(=O)/C=C/C(=O)NNC(=O)CCc1ccccc1C(=O)N[C@H](C)c1cccc(-c2cn[nH]c2)c1
- IC50 [20]: 0.21 µM
- EC90 [10]: 3.58 µM
- CC50 ([16]; A549-ACE2 cells): > 99 µM

Compound: C[C@@H](NC(=O)c1ccccc1CCC(=O)NNC(=O)/C=C/C(=O)OCCC(F)(F)F)c1cccc2ccccc12
- IC50 [20]: 0.25 µM
- EC90 [10]: 1.26 µM
- CC50 ([16]; a549-ace2): 61.9 µM

Compound: C[C@@H](NC(=O)c1ccccc1CCC(=O)NNC(=O)/C=C/C(=O)OC1CCCCC1)c1cccc2ccccc12
- IC50 [20]: 0.96 µM
- EC90 [10]: 0.41 µM
- CC50 ([16]; A549-ACE2 cells): > 99 µM

Compound: CCOC(=O)/C=C/C(=O)NNC(=O)CCc1ccccc1C(=O)N[C@H](C)c1cccc2ccccc12
- IC50 [20]: 0.19 µM
- EC90 [10]: 0.31 µM
- CC50 ([16]; a549-ace2): 44.7 µM

Compound: C[C@@H](NC(=O)c1ccccc1CCC(=O)NNC(=O)/C=C/C(=O)N(C)C)c1cccc2ccccc12
- IC50 [20]: 18.5 µM
- EC90 [10]: > 9.6 µM
- CC50 ([16]; A549-ACE2 cells): > 99 µM

Compound: C=C(CC(=O)NNC(=O)CCc1ccccc1C(=O)N[C@H](C)c1cccc2ccccc12)C(=O)OC
- IC50 [20]: 17.9 µM
- EC90 [10]: 8.3 µM
- CC50 ([16]; a549-ace2): 6.1 µM

Compound: COC(=O)/C=C/C(=O)NNC(=O)CCc1ccccc1C(=O)N[C@H](C)c1cccc(C2=CCOCC2)c1
- IC50 [20]: 0.29 µM
- EC90 [10]: 1.24 µM
- CC50 ([16]; a549-ace2): 48.4 µM

Compound: COC(=O)/C=C/CNC(=O)CCc1ccccc1C(=O)N[C@H](C)c1cccc2ccccc12
- IC50 [20]: 26.2 µM
- EC90 [10]: > 9.6 µM
- CC50 ([16]; a549-ace2): 87.9 µM

Compound: C[C@@H](NC(=O)c1ccccc1CCC(=O)NNC(=O)C(F)Cl)c1cccc2ccccc12 (stereo partly drawn)
- IC50 [20]: 15.8 µM
- EC90 [10]: > 9.6 µM
- CC50 ([16]; A549-ACE2 cells): > 99 µM

Compound: C[C@@H](NC(=O)c1ccccc1CCC(=O)NNC(=O)/C=C/C(=O)OCc1ncccn1)c1cccc2ccccc12
- IC50 [20]: 0.35 µM
- EC90 [10]: 3.03 µM
- CC50 ([16]; a549-ace2): 30.1 µM

Compound: CC(=O)C(=O)NNC(=O)CCc1ccccc1C(=O)N[C@H](C)c1cccc2ccccc12
- IC50 [20]: 37.3 µM
- EC90 [10]: > 9.6 µM
- CC50 ([16]; A549-ACE2 cells): > 99 µM
